ChEMBL document CHEMBL5143723, “Orally Bioavailable Enzymatic Inhibitor of CD38, MK-0159, Protects against Ischemia/Reperfusion Injury in the Murine Heart” (J Med Chem, 2022)
Values after ≈ are worked out from the molar mass of the structure shown. Active and inactive are the calls of the source. The calls are words filed in the database; no cut-off is given here.

What was measured:
[1] = target: T1, ADP-ribosyl cyclase/cyclic ADP-ribose hydrolase 1 (Homo sapiens, UniProt P28907)
T1 sequence (P28907 whole entry): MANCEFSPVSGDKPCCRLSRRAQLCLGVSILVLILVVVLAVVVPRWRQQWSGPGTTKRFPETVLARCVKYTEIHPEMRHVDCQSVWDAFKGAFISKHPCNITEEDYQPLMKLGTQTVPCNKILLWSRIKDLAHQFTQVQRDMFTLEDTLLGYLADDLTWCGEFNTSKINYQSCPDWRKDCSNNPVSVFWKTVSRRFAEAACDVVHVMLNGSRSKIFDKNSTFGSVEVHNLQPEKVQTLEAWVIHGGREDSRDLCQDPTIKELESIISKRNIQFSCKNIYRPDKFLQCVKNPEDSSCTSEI
Description: Inhibition of human his tagged CD38 using N6-etheno-NAD as substrate by fluorescence microplate reader assay

[2] = species: Mus musculus; conditions: dose 3-30 mg/kg, route po, time 6.0 hrs
[3] = target: CYP2C19 (Homo sapiens, UniProt P33261); assay: Inhibition of CYP2C19 (unknown origin) at 10 uM relative to control; type: ADME
[4] = Volume of distribution at steady state in non-human primates at 1 mg/kg, iv; type: ADME, organism-based; conditions: in vivo, read-out: Vdss
[5] = AUC in non-human primates at 1 mg/kg, po; type: ADME, organism-based; parameters: dose 1 mg/kg, route po; conditions: in vivo
[6] = species: Mus musculus; conditions: dose 3-30 mg/kg, route po, time 6.0 hrs; remark: listed apart in the source
[7] = AUC in non-human primates at 1 mg/kg, iv; type: ADME, organism-based; parameters: dose 1 mg/kg, route iv; conditions: in vivo
[8] = species: Mus musculus; conditions: dose 3-30 mg/kg, route po, time 6.0 hrs; remark: listed apart in the source
[9] = Apparent permeability of compound across basolateral to apical side in human Caco-2 cells; type: ADME, cell-based
[10] = Apparent permeability of compound across apical to basal membrane in human Caco-2 cells; type: ADME, cell-based
[11] = AUC in Sprague-Dawley rat at 1 mg/kg, iv; type: ADME, organism-based; parameters: dose 1 mg/kg, route iv; conditions: in vivo
[12] = target: T2, CYP2C8 (Homo sapiens, UniProt P10632); assay: Inhibition of CYP2C8 (unknown origin) at 10 uM relative to control; type: ADME
T2 sequence (P10632 whole entry): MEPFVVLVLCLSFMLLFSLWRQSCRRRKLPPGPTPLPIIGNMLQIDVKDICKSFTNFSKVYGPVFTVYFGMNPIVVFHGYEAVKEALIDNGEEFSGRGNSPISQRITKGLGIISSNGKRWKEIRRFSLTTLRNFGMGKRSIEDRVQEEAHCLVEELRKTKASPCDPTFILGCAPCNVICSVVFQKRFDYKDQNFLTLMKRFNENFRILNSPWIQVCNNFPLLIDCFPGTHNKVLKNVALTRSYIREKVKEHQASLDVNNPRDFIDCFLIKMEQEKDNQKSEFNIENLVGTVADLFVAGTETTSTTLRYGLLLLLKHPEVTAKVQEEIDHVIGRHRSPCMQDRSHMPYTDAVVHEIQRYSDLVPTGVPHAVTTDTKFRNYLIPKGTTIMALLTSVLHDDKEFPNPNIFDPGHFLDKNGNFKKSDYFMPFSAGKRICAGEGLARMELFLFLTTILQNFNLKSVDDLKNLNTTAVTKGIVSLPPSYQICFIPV

[13] = target: hERG (Homo sapiens, UniProt Q12809); assay: Inhibition of hERG (unknown origin) at 10 uM by patch clamp method; type: toxicity
[14] = Cmax in CD-1 mouse at 3 mg/kg, po; type: ADME, organism-based; parameters: dose 3 mg/kg, route po; conditions: in vivo
[15] = Plasma concentration in CD1 mouse at 10 to 90 mg/kg, via oral gavage by LC-MS/MS analysis; type: ADME, organism-based; conditions: in vivo, DDE = dose-dependent effect, dose 10-90 mg/kg
[16] = Half life in Sprague-Dawley rat at 1 mg/kg, iv; type: ADME, organism-based; conditions: in vivo
[17] = Thermodynamic aqueous solubility of the compound; type: physicochemical; conditions: buffer; read-out: Therm_solubility
[18] = target: CYP2D6 (Homo sapiens, UniProt P10635); assay: Inhibition of CYP2D6 (unknown origin) at 10 uM relative to control; type: ADME
[19] = target: T3, CYP1A2 (Homo sapiens, UniProt P05177); assay: Inhibition of CYP1A2 (unknown origin) at 10 uM relative to control; type: ADME
T3 sequence (P05177 whole entry): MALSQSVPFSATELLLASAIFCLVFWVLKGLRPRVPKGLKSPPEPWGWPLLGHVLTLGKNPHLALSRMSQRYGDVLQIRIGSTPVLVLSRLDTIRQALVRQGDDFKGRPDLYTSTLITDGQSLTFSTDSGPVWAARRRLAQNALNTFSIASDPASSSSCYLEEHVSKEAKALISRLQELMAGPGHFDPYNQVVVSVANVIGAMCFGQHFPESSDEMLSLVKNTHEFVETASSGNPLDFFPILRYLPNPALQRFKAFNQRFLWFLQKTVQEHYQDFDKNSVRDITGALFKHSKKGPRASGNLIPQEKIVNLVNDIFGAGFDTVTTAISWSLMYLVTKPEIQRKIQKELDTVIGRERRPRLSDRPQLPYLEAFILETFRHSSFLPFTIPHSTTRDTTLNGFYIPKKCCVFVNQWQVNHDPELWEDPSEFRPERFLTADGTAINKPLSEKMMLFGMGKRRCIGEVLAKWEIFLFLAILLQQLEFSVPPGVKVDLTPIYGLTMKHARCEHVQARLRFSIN

[20] = species: Mus musculus; conditions: C57BL/6, dose 30.0 mg/kg, route po, time 4.0 hrs
[21] = Half life in non-human primates at 1 mg/kg, po; type: ADME, organism-based; conditions: in vivo
[22] = In vivo inhibition of CD38 in po dosed mouse assessed as reduction in ADPR level in blood mg/kg measured after 6 hrs; type: functional, organism-based
[23] = Cmax in Sprague-Dawley rat at 10 mg/kg, po; type: ADME, organism-based; parameters: dose 10 mg/kg, route po; conditions: in vivo
[24] = Oral bioavailability in non-human primates at 1 mg/kg; type: ADME, organism-based; conditions: in vivo
[25] = Cmax in non-human primates at 1 mg/kg, po; type: ADME, organism-based; parameters: dose 1 mg/kg, route po; conditions: in vivo
[26] = Half life in CD-1 mouse at 3 mg/kg, po; type: ADME, organism-based; conditions: in vivo
[27] = AUC in Sprague-Dawley rat at 10 mg/kg, po; type: ADME, organism-based; parameters: dose 10 mg/kg, route po; conditions: in vivo
[28] = Volume of distribution at steady state in Sprague-Dawley rat at 1 mg/kg, iv; type: ADME, organism-based; conditions: in vivo
[29] = Half life in non-human primates at 1 mg/kg, iv; type: ADME, organism-based; conditions: in vivo
[30] = species: Mus musculus; conditions: C57BL/6, dose 30.0 mg/kg, route po, time 4.0 hrs; remark: listed apart in the source
[31] = AUC in CD-1 mouse at 3 mg/kg, po; type: ADME, organism-based; parameters: dose 3 mg/kg, route po; conditions: in vivo
[32] = Half life in CD-1 mouse at 1 mg/kg, iv; type: ADME, organism-based; conditions: in vivo
[33] = Kinetic aqueous solubility of the compound; type: physicochemical; conditions: buffer; read-out: Kinetic_solubility
[34] = target: T4, ADP-ribosyl cyclase/cyclic ADP-ribose hydrolase 1 (Mus musculus, UniProt P56528); assay: Inhibition of mouse his tagged CD38 using N6-etheno-NAD as substrate by fluorescence microplate reader assay
T4 sequence (P56528 whole entry): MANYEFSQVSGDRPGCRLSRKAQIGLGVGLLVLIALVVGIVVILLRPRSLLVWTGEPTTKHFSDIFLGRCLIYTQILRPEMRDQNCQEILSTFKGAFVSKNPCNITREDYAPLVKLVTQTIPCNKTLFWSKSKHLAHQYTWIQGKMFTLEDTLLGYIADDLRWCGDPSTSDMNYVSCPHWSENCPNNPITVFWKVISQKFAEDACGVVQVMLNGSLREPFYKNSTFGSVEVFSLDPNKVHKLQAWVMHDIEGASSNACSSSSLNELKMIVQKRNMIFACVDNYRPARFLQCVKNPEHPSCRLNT

[35] = Plasma protein binding in rat; type: ADME, cell-free; conditions: read-out: PPB (converted)
[36] = In vivo inhibition of CD38 in po dosed mouse assessed as reduction in ADPR level in heart measured after 6 hrs; type: functional, organism-based
[37] = AUC in CD-1 mouse at 1 mg/kg, iv; type: ADME, organism-based; parameters: dose 1 mg/kg, route iv; conditions: in vivo
[38] = species: Mus musculus; conditions: C57BL/6, dose 30.0 mg/kg, route po, time 4.0 hrs; remark: listed apart in the source
[39] = species: Mus musculus; conditions: C57BL/6, dose 30.0 mg/kg, route po
Description: In vivo inhibition of CD38 in myocardial ischemia/reperfusion induced C57BL/6 mouse injury model assessed as change in cardiac NAD+ level at 30 mg/kg via oral gavage

[40] = Drug exposure in mouse plasma assessed as AUC of drug at 3 mg/kg, po; type: ADME, organism-based; parameters: dose 3 mg/kg, route po
[41] = Plasma protein binding in mouse; type: ADME, cell-free; conditions: read-out: PPB (converted)
[42] = Volume of distribution at steady state in CD-1 mouse at 1 mg/kg, iv; type: ADME, organism-based; conditions: in vivo
[43] = Half life in Sprague-Dawley rat at 10 mg/kg, po; type: ADME, organism-based; conditions: in vivo
[44] = species: Mus musculus; conditions: dose 3-30 mg/kg, route po, time 6.0 hrs; remark: listed apart in the source
[45] = Plasma concentration in Sprague-Dawley rat at 10 to 90 mg/kg, via oral gavage by LC-MS/MS analysis; type: ADME, organism-based; conditions: in vivo, DDE = dose-dependent effect, dose 10-90 mg/kg
[46] = target: T5, ADP-ribosyl cyclase/cyclic ADP-ribose hydrolase 1 (Rattus norvegicus, UniProt Q64244); assay: Inhibition of rat CD38 using N6-etheno-NAD as substrate by fluorescence microplate reader assay
T5 sequence (Q64244 whole entry): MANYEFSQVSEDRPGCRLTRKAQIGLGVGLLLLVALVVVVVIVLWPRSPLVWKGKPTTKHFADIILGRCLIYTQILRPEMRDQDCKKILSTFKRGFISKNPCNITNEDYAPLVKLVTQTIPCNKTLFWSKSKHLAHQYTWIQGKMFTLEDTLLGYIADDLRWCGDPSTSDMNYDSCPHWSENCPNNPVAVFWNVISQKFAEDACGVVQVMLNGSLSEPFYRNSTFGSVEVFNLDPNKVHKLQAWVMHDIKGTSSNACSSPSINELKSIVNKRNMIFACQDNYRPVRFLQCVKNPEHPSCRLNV

[47] = target: CYP2C9 (Homo sapiens, UniProt P11712); assay: Inhibition of CYP2C9 (unknown origin) at 10 uM relative to control; type: ADME
[48] = Plasma protein binding in human; type: ADME, cell-free; conditions: read-out: PPB (converted)

Sequence of CYP2C19 (P33261 whole entry): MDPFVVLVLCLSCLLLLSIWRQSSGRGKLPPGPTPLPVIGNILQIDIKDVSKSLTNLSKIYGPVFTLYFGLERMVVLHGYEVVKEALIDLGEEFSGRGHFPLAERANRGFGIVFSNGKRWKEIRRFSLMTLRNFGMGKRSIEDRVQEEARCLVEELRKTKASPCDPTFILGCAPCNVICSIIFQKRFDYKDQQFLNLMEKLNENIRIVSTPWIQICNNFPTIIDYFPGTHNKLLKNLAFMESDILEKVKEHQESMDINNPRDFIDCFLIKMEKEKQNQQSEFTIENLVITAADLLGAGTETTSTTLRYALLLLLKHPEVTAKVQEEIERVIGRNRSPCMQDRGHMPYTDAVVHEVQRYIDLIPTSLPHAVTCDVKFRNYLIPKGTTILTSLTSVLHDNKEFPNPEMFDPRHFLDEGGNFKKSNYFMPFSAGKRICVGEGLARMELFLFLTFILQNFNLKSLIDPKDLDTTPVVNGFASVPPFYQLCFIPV
Sequence of hERG (Q12809 whole entry): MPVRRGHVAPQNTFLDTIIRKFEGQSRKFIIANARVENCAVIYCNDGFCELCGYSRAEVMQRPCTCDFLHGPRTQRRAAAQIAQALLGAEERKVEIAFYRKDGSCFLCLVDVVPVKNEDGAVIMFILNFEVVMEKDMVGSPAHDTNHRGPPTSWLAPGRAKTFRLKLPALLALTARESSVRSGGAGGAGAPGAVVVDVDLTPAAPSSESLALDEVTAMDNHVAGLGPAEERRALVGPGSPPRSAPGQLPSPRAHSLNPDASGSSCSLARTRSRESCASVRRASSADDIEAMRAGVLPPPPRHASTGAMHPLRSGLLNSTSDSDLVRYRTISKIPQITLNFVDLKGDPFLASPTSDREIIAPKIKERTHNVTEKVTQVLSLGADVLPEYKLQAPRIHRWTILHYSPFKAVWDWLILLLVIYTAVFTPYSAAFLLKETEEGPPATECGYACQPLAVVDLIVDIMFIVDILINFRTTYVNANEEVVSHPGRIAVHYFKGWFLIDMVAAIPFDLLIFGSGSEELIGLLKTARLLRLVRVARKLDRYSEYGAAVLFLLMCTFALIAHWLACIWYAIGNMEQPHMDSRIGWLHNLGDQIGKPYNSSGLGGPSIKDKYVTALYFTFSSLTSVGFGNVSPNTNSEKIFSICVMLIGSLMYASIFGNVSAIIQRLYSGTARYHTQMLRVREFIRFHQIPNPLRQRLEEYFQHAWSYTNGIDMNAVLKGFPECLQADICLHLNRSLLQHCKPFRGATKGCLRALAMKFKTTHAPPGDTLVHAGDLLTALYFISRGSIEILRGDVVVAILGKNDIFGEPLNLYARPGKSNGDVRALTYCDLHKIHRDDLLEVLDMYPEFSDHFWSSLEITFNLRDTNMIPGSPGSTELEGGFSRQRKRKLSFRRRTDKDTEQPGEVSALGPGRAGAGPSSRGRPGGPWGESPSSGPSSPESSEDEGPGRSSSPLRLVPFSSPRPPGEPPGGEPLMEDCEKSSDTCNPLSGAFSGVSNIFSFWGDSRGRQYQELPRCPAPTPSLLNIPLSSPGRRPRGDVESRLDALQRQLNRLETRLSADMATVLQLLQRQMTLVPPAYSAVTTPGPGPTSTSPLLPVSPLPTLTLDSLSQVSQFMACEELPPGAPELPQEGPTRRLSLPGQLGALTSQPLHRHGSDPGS
Sequence of CYP2D6 (P10635 whole entry): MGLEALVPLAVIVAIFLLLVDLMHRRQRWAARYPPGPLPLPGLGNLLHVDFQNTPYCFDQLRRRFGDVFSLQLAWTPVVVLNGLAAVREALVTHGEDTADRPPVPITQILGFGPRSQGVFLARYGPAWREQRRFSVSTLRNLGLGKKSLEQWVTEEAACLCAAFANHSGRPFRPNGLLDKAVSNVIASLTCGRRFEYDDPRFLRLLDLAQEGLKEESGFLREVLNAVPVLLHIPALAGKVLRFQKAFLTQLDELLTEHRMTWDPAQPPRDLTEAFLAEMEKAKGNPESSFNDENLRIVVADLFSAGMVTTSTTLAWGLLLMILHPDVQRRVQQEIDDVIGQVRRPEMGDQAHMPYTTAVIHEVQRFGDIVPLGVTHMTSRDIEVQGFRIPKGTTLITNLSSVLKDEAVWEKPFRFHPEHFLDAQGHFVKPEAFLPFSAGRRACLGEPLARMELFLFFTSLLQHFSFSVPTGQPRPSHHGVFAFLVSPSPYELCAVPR
Sequence of CYP2C9 (P11712 whole entry): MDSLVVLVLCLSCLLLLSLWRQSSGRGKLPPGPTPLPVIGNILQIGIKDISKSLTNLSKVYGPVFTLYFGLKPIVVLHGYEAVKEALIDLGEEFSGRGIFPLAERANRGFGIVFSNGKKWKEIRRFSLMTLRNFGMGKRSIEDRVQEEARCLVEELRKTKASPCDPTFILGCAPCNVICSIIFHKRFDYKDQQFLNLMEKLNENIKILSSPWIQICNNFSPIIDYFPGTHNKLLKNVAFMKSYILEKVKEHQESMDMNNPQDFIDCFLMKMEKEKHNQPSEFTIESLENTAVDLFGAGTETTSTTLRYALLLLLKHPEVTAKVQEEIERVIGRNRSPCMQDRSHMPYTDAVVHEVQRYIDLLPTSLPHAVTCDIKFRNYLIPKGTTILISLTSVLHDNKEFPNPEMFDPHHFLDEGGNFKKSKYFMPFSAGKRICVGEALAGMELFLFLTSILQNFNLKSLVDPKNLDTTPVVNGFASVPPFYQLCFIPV

## COCCO[C@H]1CC[C@H](CNC(=O)c2cc(-c3cncs3)cc3[nH]ccc23)CC1
[1]
  IC50: 6000 nM

## COCCO[C@H]1CC[C@H](NC(=O)c2cc(-c3cnn(C)c3)cc3cc[nH]c23)CC1
[1]
  IC50: > 100000 nM

## COCCO[C@H]1CC[C@H](NC(=O)c2cc(-c3cncs3)nc3[nH]ccc23)CC1
[2]
  inhibition: Active
[3]
  inhibition at 10 µM: < 15%
[4]
  Vd: 0.9 L/kg
[5]
  AUC: 1740 ng·h/mL
[6]
  inhibition: Active
[7]
  AUC: 1670 ng·h/mL
[8]
  inhibition: Active
[9]
  Papp B→A: 29.6 ×10⁻⁶ cm/s
[10]
  Papp A→B: 17.5 ×10⁻⁶ cm/s
[11]
  AUC: 4810 ng·h/mL
[12]
  inhibition at 10 µM: < 15%
[13]
  inhibition at 10 µM: < 10%
[14]
  Cmax: 4230 ng/mL
[15]
  Activity: Dde
[16]
  t1/2: 3 h
[17]
  solubility thermodynamic: 10 µg/mL (≈ 25 µM)
[18]
  inhibition at 10 µM: < 15%
[19]
  inhibition at 10 µM: < 15%
[20]
  inhibition: Active
[21]
  half-life: 3 h
[22]
  EC50: 40 nM
[23]
  Cmax: 9.91 ng/mL
[24]
  bioavailability: 100%
[25]
  Cmax: 710 ng/mL
[26]
  half-life: 1.2 h
[27]
  AUC: 60400 ng·h/mL
[28]
  Vdss: 9 L/kg
[29]
  half-life: 3.1 h
[30]
  inhibition: Active
[31]
  AUC: 10400 ng·h/mL
[32]
  t1/2: 1 h
[33]
  solubility kinetic: 25 µM (≈ 10 µg/mL)
[34]
  IC50: 3 nM
[35]
  fraction unbound: 0.047
[36]
  EC50: 181 nM
[37]
  AUC: 1295 ng·h/mL
[38]
  inhibition: Active
[39]
  inhibition: Active
[40]
  AUC: 10400 ng·h/mL
[41]
  fraction unbound: 0.206
[42]
  Vdss: 1.1 L/kg
[43]
  half-life: 2.7 h
[44]
  inhibition: Active
[45]
  Activity: Dde
[46]
  IC50: 70 nM
[47]
  inhibition at 10 µM: < 15%
[48]
  fraction unbound: 0.209

## COCCO[C@H]1CC[C@H](NC(=O)c2cc(-c3cncs3)cc3[nH]ccc23)CC1
[40]
  AUC: 6980 ng·h/mL

## COCCO[C@H]1CC[C@H](NC(=O)c2cc(-c3cscn3)cc3cc[nH]c23)CC1
[1]
  IC50: > 100000 nM

## COCCO[C@H]1CC[C@H](NC(=O)c2cc(-c3cncs3)cn3cnnc23)CC1
[1]
  IC50: > 100000 nM

## COCCO[C@H]1CC[C@H](NC(=O)c2cc(-n3ccnc3C)cc3cc[nH]c23)CC1
[1]
  IC50: > 100000 nM

## COCCO[C@H]1CC[C@H](NC(=O)c2cc(-c3cncs3)cn3ccnc23)CC1
[1]
  IC50: > 100000 nM
